# From patent US7786356B2, “Method for the production of calendic acid, a fatty acid containing delta 8,10,12 conjugated double bonds and related fatty acids having a modification at the delta 9 position” (E.I. du Pont de Nemours and Company, priority 1999, dated 2010)
# System: pigs (barrows)
# Experiment: Belly (fat) compression test in pigs fed conjugated fatty acids
# Format: in vivo, pig
# Experimental: Experiments were conducted to evaluate the effects of feeding eleostearic (18:3) conjugated fatty acids on pig growth, carcass characteristics, and fat firmness. Twenty-four pigs (barrows, castrated males, from PIC genetics) with a capacity for high rates of daily lean growth and reduced back fat were randomly assigned by litter mates, weight, and block to three dietary treatments. Group one was fed normal corn feed, group two received normal corn feed supplemented with CLA, and the third group received normal corn feed supplemented with conjugated linolenic acids, i.e., ClnAs (18:3 conjugated fatty acids). Pigs were penned individually and identified by ear tattoo. […]
# Live weights were recorded to determine average daily gains Phase 1 (150 to 200 lbs), and Phase 2 (200 to 250 lbs). […]
# When pigs reached 250 pounds body weight they were slaughtered, processed and standard carcass measurements were collected. […] Bellies from the eight pigs in each study group were evaluated for fat firmness evaluated by measuring belly thickness before and after compression. […] Fat compression was quantified by subtracting the compressed belly thickness from the initial belly thickness. Belly thickness was measured using a micrometer. Data were analyzed as a randomized complete block design using the GLM (General Linear Model) procedure of SAS (Statistical Analysis Systems). […]
substance,measurement,setting,value
Conjugated linoleic acid [NC + CLA],fat firmness in pigs (in words),"addition to NC diets, versus NC diet",greater fat firmness
same,Pork Belly Compression,"initial minus compressed belly thickness, 50 lb weight for one hour, 0.50% conjugated fatty acid in diet, smaller number = greater firmness, 8 pigs per group",28.0 mm
